Where only a bound is given, the exact number is not on record here.

The test system of one data set is Mus musculus. As to the kind of experiment: AUC (0 to 4h) in mouse at 20 mg/kg, po. The format is ADME, organism-based, Plasma. Further details: time < 4 hr, dose 20 mg/kg, route oral. The settings on record: in vivo.
The target of data set [1] is T1, Insulin-like growth factor 1 receptor (Homo sapiens, UniProt P08069). Description: Inhibition of IGF1R.
For data set [2], the target named is T1, Insulin-like growth factor 1 receptor. As to the kind of experiment: Inhibition of IGF1R expressed in SAL cells. The format is cell-based.
The subject of a further data set is Serum. Description: Protein binding in human serum. The class given is ADME, cell-free.
Data set [3] can be described thus: Protein binding in mouse serum. The format is ADME, cell-free. The settings on record: read-out: PB.

T1 sequence (P08069 31-736 limits assumed): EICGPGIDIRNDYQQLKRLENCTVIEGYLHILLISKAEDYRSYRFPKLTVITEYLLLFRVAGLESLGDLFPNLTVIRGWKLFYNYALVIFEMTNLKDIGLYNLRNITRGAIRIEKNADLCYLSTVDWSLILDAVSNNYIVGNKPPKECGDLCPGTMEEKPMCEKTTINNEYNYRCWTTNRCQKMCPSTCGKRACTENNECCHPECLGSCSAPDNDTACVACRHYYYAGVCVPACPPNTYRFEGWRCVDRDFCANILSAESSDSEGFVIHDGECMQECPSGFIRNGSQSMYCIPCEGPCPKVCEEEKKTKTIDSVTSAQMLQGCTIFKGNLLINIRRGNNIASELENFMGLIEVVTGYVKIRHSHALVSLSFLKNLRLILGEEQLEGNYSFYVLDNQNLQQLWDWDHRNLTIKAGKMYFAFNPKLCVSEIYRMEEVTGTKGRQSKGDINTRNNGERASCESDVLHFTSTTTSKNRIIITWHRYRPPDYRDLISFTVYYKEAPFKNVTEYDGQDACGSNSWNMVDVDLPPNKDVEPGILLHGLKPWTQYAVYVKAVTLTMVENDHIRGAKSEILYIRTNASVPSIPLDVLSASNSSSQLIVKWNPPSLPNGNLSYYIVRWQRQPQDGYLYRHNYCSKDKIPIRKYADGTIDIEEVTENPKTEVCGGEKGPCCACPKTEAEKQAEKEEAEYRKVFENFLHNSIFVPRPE
T1 sequence (P08069 741-1367 limits assumed): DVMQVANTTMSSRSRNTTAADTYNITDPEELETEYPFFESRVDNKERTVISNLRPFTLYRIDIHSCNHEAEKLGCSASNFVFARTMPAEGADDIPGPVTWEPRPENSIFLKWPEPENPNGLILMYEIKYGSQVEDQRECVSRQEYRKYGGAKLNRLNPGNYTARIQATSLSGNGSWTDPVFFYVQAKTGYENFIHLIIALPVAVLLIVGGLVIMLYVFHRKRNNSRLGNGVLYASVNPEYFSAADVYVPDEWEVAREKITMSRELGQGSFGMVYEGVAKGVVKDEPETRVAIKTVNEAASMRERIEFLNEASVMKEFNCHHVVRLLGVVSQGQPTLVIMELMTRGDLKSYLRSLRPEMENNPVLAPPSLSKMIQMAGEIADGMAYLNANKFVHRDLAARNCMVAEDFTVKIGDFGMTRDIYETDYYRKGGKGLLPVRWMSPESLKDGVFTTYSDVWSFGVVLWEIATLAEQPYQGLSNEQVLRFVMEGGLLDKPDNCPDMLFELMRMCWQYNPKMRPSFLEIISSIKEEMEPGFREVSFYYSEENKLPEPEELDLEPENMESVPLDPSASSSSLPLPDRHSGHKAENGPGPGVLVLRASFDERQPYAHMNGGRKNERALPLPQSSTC

In the data set with Mus musculus, `Cc1cc(N2CCOCC2)cc2[nH]c(-c3c(NCCc4ncn(C)c4Cl)cc[nH]c3=O)nc12` registered an area under the curve (AUC) of 8.2 µM·h.

Compound `CCn1cnc(CCNc2cc[nH]c(=O)c2-c2nc3c(C)cc(N4CCOCC4)cc3[nH]2)c1Cl` came in with an exposure (AUC) with Mus musculus of 50.9 µM·h.

Turning to `Cc1cc(N2CCOCC2)cc2[nH]c(-c3c(NCCc4cn(C)cn4)cc[nH]c3=O)nc12`, the AUC with Mus musculus turned out to be 3.8 µM·h.

Compound `Cc1cc(N2CCOCC2)cc2[nH]c(-c3c(NCCc4nc(C)n(C)c4Cl)cc[nH]c3=O)nc12` yielded an exposure (AUC) with Mus musculus of 36 µM·h.

Regarding `Cc1cc(N2CCOCC2)cc2[nH]c(-c3c(NCCc4nc(Cl)n(C)c4Cl)cc[nH]c3=O)nc12`, the AUC in the data set with Mus musculus came out at 32.2 µM·h.

With `Cc1cnn(CCNc2cc[nH]c(=O)c2-c2nc3c(C)cc(N4CCOCC4)cc3[nH]2)c1`, the exposure (AUC) in the data set with Mus musculus is 2.7 µM·h.

On to `CCOC(=O)c1cnn(CCNc2cc[nH]c(=O)c2-c2nc3c(C)cc(N4CCOCC4)cc3[nH]2)c1`, for which the area under the curve (AUC) in the data set with Mus musculus turned out to be 4.9 µM·h.

Consider `COC(=O)c1cnn(CCNc2cc[nH]c(=O)c2-c2nc3c(C)cc(N4CCOCC4)cc3[nH]2)c1`, for which, in the data set with Mus musculus, the AUC was 14.1 µM·h.

The compound `Cc1cc(N2CCOCC2)cc2[nH]c(-c3c(NCCn4cccn4)cc[nH]c3=O)nc12` had an exposure (AUC) in the data set on Mus musculus of 1.6 µM·h.

For `Cc1cc(N2CCOCC2)cc2[nH]c(-c3c(NCCn4cc(Br)c(CO)n4)cc[nH]c3=O)nc12`, in the data set with Mus musculus, the AUC turned out to be 2 µM·h.

`Cc1cc(N2CCOCC2)cc2[nH]c(-c3c(NCCn4nccc4C)cc[nH]c3=O)nc12`: the results for the half-inhibitory concentration (IC50) in data set [1] and in data set [2] were 270 nM and 542 nM, respectively. In the data set with Mus musculus, the AUC turned out to be 5.2 µM·h.

As to `Cc1nn(CCNc2cc[nH]c(=O)c2-c2nc3c(C)cc(N4CCOCC4)cc3[nH]2)cc1Br`, the area under the curve (AUC) in the data set with Mus musculus was 132 µM·h.

As for `Cc1nn(CCNc2cc[nH]c(=O)c2-c2nc3c(C)cc(N4CCOCC4)cc3[nH]2)cc1Cl`, the exposure (AUC) in the data set with Mus musculus is 57.8 µM·h.

The compound `Cc1cc(N2CCOCC2)cc2[nH]c(-c3c(NCCn4cc(Cl)cn4)cc[nH]c3=O)nc12` yielded an AUC in the data set with Mus musculus of 90.3 µM·h.

In the case of `Cc1ccn(CCNc2cc[nH]c(=O)c2-c2nc3c(C)cc(N4CCOCC4)cc3[nH]2)n1`, the IC50 in data set [1] came out at 290 nM; in data set [2], 422 nM. Besides, the area under the curve (AUC) with Mus musculus is 1.2 µM·h.

With `Cc1cc(N2CCOCC2)cc2[nH]c(-c3c(NC[C@@H](O)c4cccc(Cl)c4)cc[nH]c3=O)nc12`, the PB in the data set with Serum worked out at 99.6%. Further, the fraction unbound in data set [3] is less than 0.001. In the data set on Mus musculus, this compound gave an exposure (AUC) of 50.9 µM·h.

As for `Cc1cc(N2CCOCC2)cc2[nH]c(-c3c(NCCn4ncc(Br)c4C)cc[nH]c3=O)nc12`, the area under the curve (AUC) with Mus musculus amounted to 33 µM·h.

For `CCn1cnc(CCNc2cc[nH]c(=O)c2-c2nc3c(C)cc(N4CCOCC4)cc3[nH]2)c1Br`, the 50% inhibitory concentration (IC50) in data set [1] was 172 nM; in data set [2], 284 nM.

Usually AUC stands for the area under the concentration-time curve, a measure of exposure. A word on the IC50: it is the concentration that inhibits the measured activity by half.

Source of the values: ChEMBL document CHEMBL1141515, “2-(1H-Imidazol-4-yl)ethanamine and 2-(1H-pyrazol-1-yl)ethanamine side chain variants of the IGF-1R inhibitor BMS-536924” (Bioorg Med Chem Lett, 2008).
